The text below walks through data of patent US12233056B2, “Lysyl oxidase inhibitors for treating myeloid malignancies” (Syntara Limited, priority 2022, dated 2025).

Assay [1] deals with in vitro co-cultured, patient derived, MSC/HSC cells. The assay is described as follows: Erythroid differentiation in in vitro co-cultured, patient derived MSC/HSC cells. The class given is cell-based, human. As to conditions: 2 μM PXS-5505, 100 nM 5-AZA daily; flow cytometry after 14 days; n=3; FIG. 1. From the text: Healthy CD34+ cells were isolated from hip replacement surgery bone specimen (old CD34+ cells) or collected by iliac crest puncture of healthy volunteers (young CD34+ cells). Approval for collection of patient samples was given by the Institutional Review Board of the Medical Faculty Mannheim, University of Heidelberg, Germany, in accordance with the declaration of Helsinki. All patients were informed and provided written consent for sample collection. Mononuclear cells (MNC) were isolated from bone marrow by Ficoll density gradient. CD34+ cells from MNC were isolated using MACS enrichment columns (Miltenyi Biotec, Bergisch Gladbach, Germany) according to the manufacturer's instructions as described. Purity of the CD34+ populations were confirmed by FACS analysis to be >95%. These were then viably frozen and thawed immediately before xenotransplantation.
Mesenchymal stromal cells (MSC) were isolated from residual diagnostic material and selected via their plastic adherence properties in culture. MSC were expanded in NH-Expansion medium (Miltenyi Biotec) and cultured to a maximum of 4 passages. Ex-vivo expanded MSCs were FACS analyzed to confirm adherence to the minimal criteria for defining multipotent mesenchymal stromal cells as described in [Medyouf, 2014]. […]

Assay [2] concerns erythroid differentiation (the CD235a+ and CD45− population) in the bone marrow collected from xenotransplanted mice. The assay is described as follows: Xenotransplantation model: erythroid differentiation from bone marrow of xenotransplanted mice. The class given is in vivo. Conditions: 5-AZA 75 mg/m2 5+2 schedule, 3 cycles; PXS-5505 30 mg/kg every 48 h; 3 months; FIG. 2. As to the method:
Female immunocompromised mice (NSG and NSGS, Jackson Laboratory) aged 6-8 week old were sub-lethally irradiated (200 cGy) before intrafemoral injections with a mix of CD34+ and MSCs cells (1×10^5:5×10^5) from primary myelofibrosis patients (with grade 3 fibrosis) as described previously [Medyouf, 2014]. The mice were treated with 5-AZA (75 mg/m^2 5+2 schedule, 3 cycles in total) and/or PXS-5505 (30 mg/kg every 48 h for the duration of 5-AZA treatment) for 3 months. At endpoint human CD45+ cells were FACS-sorted from mouse bone marrow. The CD45+ cells were differentiated in the medium supplemented with 5 U/mL EPO, 100 ng/mL SCF and 5 ng/mL IL-3 for 21 days followed by flow cytometry analysis for CD235a and CD45 markers as described previously.
Furthermore, it presents the rescue erythroid differentiation for a variety of different disease subtypes of myelodysplastic syndrome, chronic myelomonocytic leukemia and acute myeloid leukemia.

Take `NC/C=C(\F)CS(=O)(=O)c1cccc2cccnc12` [PXS-5505]: in assay [1], the “erythroid differentiation (CD235a+, CD45− cells)” value is “could rescue erythropoiesis”. Moreover, the “erythroid differentiation (CD235a+ and CD45− population) in bone marrow from xenotransplanted mice” value in assay [2] is reported as “could rescue erythropoiesis”.
